From patent US9005937B2, “Dual cofactor specific ribitol dehydrogenase and use thereof” (Konkuk University Industrial Cooperation Corp., priority 2011, dated 2015)
“Also recorded” adds a separate entry of the source. Where two headings read alike, the source gives them in different places. Values belong to the molecule of their own block, whether it stands above or below them.

Legend:
ribitol dehydrogenase = type: biochemical, Zymomonas mobilis
[1] = target: T1, Zymomonas mobilis ribitol dehydrogenase, wild-type, SEQ ID NO: 4 (Zymomonas mobilis, UniProt Q5NQS1); assay: Dynamical (kinetic) parameters of ribitol dehydrogenase to coenzyme NAD(H)/NADP(H), wild-type; type: biochemical; details: NADP 0.01 to 3 mM
T1 sequence (Q5NQS1 74-338): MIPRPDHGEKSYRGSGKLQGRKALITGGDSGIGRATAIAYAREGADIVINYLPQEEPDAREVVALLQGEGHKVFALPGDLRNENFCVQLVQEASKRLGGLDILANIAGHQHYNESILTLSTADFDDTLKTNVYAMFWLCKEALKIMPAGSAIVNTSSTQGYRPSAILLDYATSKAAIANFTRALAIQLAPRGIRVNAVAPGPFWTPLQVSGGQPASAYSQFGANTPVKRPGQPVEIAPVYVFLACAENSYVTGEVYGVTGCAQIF
Description: The optimum pH on dehydrogenation activity of the ribitol dehydrogenase was measured using 20 mM of Tris-HCl buffer. The enzyme activity was determined by monitoring the change per minute in absorbance at 340 nm while the sample was reacted in the presence of NAD(H) and ribitol.
Then, dynamical parameters were measured through a nonlinear regression analysis.

[2] = metal ion 10 mM, enzyme treated with 10 mM EDTA for 24 hours and dialyzed

Structure (SMILES): O=S(=O)([O-])[O-].[Cu+2] [CuSO4]
Relative activity (%) 10 mM (ribitol dehydrogenase; [2]): 0.1%

Structure (SMILES): [Ca+2].[Cl-].[Cl-] [CaCl2]
Relative activity (%) 10 mM (ribitol dehydrogenase; [2]): 1.1%

Structure (SMILES): [Cl-].[Cl-].[Co+2] [CoCl2]
Relative activity (%) 10 mM (ribitol dehydrogenase): 62.5%
activity of enzyme in the presence of metal ion (in words) (ribitol dehydrogenase): maximum enzyme activity; also recorded: the activity of enzyme was observed

Structure (SMILES): [Cl-].[Cl-].[Zn+2] [ZnCl2]
Relative activity (%) 10 mM (ribitol dehydrogenase; [2]): 0.3%

kcat (NADP^+) [1]: 2.79 ± 0.15 s⁻¹
Structure (SMILES): NC(=O)c1ccc[n+]([C@@H]2O[C@H](COP(=O)(O)OP(=O)(O)OC[C@H]3O[C@@H](n4cnc5c(N)ncnc54)[C@H](OP(=O)(O)O)[C@@H]3O)[C@@H](O)[C@H]2O)c1 [NADP^+]

Structure (SMILES): [Cl-].[Cl-].[Mg+2] [MgCl2]
Relative activity (%) 10 mM (ribitol dehydrogenase; [2]): 0.4%

Structure (SMILES): [Cl][Fe]([Cl])[Cl] [FeCl3]
Relative activity (%) 10 mM (ribitol dehydrogenase; [2]): 0.2%

Structure (SMILES): [Cl][Mn][Cl] [MnCl2]
Relative activity (%) 10 mM (ribitol dehydrogenase; [2]): 100%
activity of enzyme in the presence of metal ion (in words) (ribitol dehydrogenase; metal ion 10 mM, listed as Mn^2+): maximum enzyme activity; also recorded: the activity of enzyme was observed
